Data reported in patent publication US20080200454A1, “CARBON-LINKED TETRAHYDRO-PYRAZOLO-PYRIDINE MODULATORS OF CATHEPSIN S” (priority 2007, published 2008).
Read-outs that look alike come from different tables or passages of the source.

Target: Recombinant human cathepsin S (CatS) (Homo sapiens, UniProt P25774)
Assay: Recombinant human cathepsin S (CatS) inhibition assay, fluorogenic substrate Z-Valine-Valine-Arginine-AMC;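 further: Baculovirus-expressed CatS in pH 5.0 sodium acetate buffer with DTT and NaCl, fluorescence read each minute over 20 min, inhibition derived from rate slope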

Recombinant human cathepsin S (CatS), sequence (P25774 115-331): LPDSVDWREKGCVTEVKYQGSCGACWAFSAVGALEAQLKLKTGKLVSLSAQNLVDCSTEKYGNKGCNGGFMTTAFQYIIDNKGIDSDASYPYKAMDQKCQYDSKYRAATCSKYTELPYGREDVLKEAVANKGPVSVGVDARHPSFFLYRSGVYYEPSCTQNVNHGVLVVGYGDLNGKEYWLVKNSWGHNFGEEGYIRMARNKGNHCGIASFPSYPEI

IC50 [nM]	SMILES	IC50 (CatS IC50) [nM]
30	NC(=O)C(=O)N1CCc2c(c(-c3ccc(Cl)c(C#Cc4ccc(CNCc5ccc(Cl)cc5)cc4)c3)nn2CCCN2CCSCC2)C1 [Example 414, 2-[3-(4-Chloro-3-{[4-({[(4-chlorophenyl)methyl]amino}methyl)phenyl]ethynyl}phenyl)-1-(3-thiomorpholin-4-ylpropyl)-1,4,6,7-tetrahydro-5H-pyrazolo[4,3-c]pyridin-5-yl]-2-oxoacetamide]	–
90	CS(=O)(=O)N1CCc2c(c(-c3ccc(Cl)c(C#Cc4ccc5c(c4)CNCC5)c3)nn2CCCN2CCN(C3CC3)CC2)C1 [Example 415, 7-[(2-Chloro-5-{1-[3-(4-cyclopropylpiperazin-1-yl)propyl]-5-(methylsulfonyl)-4,5,6,7-tetrahydro-1H-pyrazolo[4,3-c]pyridin-3-yl}phenyl)ethynyl]-1,2,3,4-tetrahydroisoquinoline]	–
1030	COC(=O)C1COCCN1CCCn1nc(-c2ccc(Cl)c(C#Cc3ccc(CNCc4ccc(Cl)cc4)cc3)c2)c2c1CCN(S(C)(=O)=O)C2 (stereo not shown) [Example 418, Methyl 4-{3-[3-(4-chloro-3-{[4-({[(4-chlorophenyl)methyl]amino}methyl)phenyl]ethynyl}phenyl)-5-(methylsulfonyl)-4,5,6,7-tetrahydro-1H-pyrazolo[4,3-c]pyridin-1-yl]propyl}morpholine-3-carboxylate]	–
180	CS(=O)(=O)N1CCc2c(c(-c3ccc(Cl)c(C#Cc4ccc(CNCc5ccc(Cl)cc5)cc4)c3)nn2CCCN2CCOCC2CO)C1 (stereo not shown) [Example 419, (4-{3-[3-(4-Chloro-3-{[4-({[(4-chlorophenyl)methyl]amino}methyl)phenyl]ethynyl}phenyl)-5-(methylsulfonyl)-4,5,6,7-tetrahydro-1H-pyrazolo[4,3-c]pyridin-1-yl]propyl}morpholin-3-yl)methanol]	–
100	CS(=O)(=O)N1CCc2c(c(-c3ccc(Cl)c(C#Cc4ccc(CNCc5ccc(Cl)cc5)cc4)c3)nn2CCCN2C[C@@H]3C[C@H]2CO3)C1 [Example 420, 1-[4-({2-Chloro-5-[5-(methylsulfonyl)-1-{3-[(1S,4S)-2-oxa-5-azabicyclo[2.2.1]hept-5-yl]propyl}-4,5,6,7-tetrahydro-1H-pyrazolo[4,3-c]pyridin-3-yl]phenyl}ethynyl)phenyl]-N-[(4-chlorophenyl)methyl]methanamine]	–

The next lines start with the molecule.

SMILES	IC50 [nM]	IC50 (CatS IC50) [nM]
CC1C(=O)NCCN1CCCn1nc(-c2ccc(Cl)c(C#Cc3ccc(CNCc4ccc(Cl)cc4)cc3)c2)c2c1CCN(S(C)(=O)=O)C2 (stereo not shown) [Example 406, 4-{3-[3-(4-Chloro-3-{[4-({[(4-chlorophenyl)methyl]amino}methyl)phenyl]ethynyl}phenyl)-5-(methylsulfonyl)-4,5,6,7-tetrahydro-1H-pyrazolo[4,3-c]pyridin-1-yl]propyl}-3-methylpiperazin-2-one]	460	–
CS(=O)(=O)N1CCc2c(c(-c3ccc(Cl)c(C#Cc4ccc(CNCc5ccc(Cl)cc5)cc4)c3)nn2CCCN2CCN(c3ccccc3O)CC2)C1 [Example 407, 2-(4-{3-[3-(4-Chloro-3-{[4-({[(4-chlorophenyl)methyl]amino}methyl)phenyl]ethynyl}phenyl)-5-(methylsulfonyl)-4,5,6,7-tetrahydro-1H-pyrazolo[4,3-c]pyridin-1-yl]propyl}piperazin-1-yl)phenol]	–	20
CS(=O)(=O)N1CCc2c(c(-c3ccc(Cl)c(C#Cc4ccc(CNCc5ccccn5)cc4)c3)nn2CCCN2CCOCC2)C1 [Example 408, 1-[4-({2-Chloro-5-[5-(methylsulfonyl)-1-(3-morpholin-4-ylpropyl)-4,5,6,7-tetrahydro-1H-pyrazolo[4,3-c]pyridin-3-yl]phenyl}ethynyl)phenyl]-N-(pyridin-2-ylmethyl)methanamine]	–	280
CS(=O)(=O)N1CCc2c(c(-c3ccc(Cl)c(C#Cc4ccc(CNCc5ccc(Cl)cc5)cc4)c3)nn2CCCN2CCN(c3cccc(O)c3)CC2)C1 [Example 409, 3-(4-{3-[3-(4-Chloro-3-{[4-({[(4-chlorophenyl)methyl]amino}methyl)phenyl]ethynyl}phenyl)-5-(methylsulfonyl)-4,5,6,7-tetrahydro-1H-pyrazolo[4,3-c]pyridin-1-yl]propyl}piperazin-1-yl)phenol]	20	–
CS(=O)(=O)N1CCc2c(c(-c3ccc(Cl)c(C#Cc4ccc(CNCc5ccc(Cl)cc5)cc4)c3)nn2CCCN2CCN(c3ccc(O)cc3)CC2)C1 [Example 410, 4-(4-{3-[3-(4-Chloro-3-{[4-({[(4-chlorophenyl)methyl]amino}methyl)phenyl]ethynyl}phenyl)-5-(methylsulfonyl)-4,5,6,7-tetrahydro-1H-pyrazolo[4,3-c]pyridin-1-yl]propyl}piperazin-1-yl)phenol]	40	–
CC(=O)N1CCc2c(c(-c3ccc(Cl)c(C#Cc4ccc(CNCc5ccc(Cl)cc5)cc4)c3)nn2CCCN2CCSCC2)C1 [Example 412, 1-[4-({5-[5-Acetyl-1-(3-thiomorpholin-4-ylpropyl)-4,5,6,7-tetrahydro-1H-pyrazolo[4,3-c]pyridin-3-yl]-2-chlorophenyl}ethynyl)phenyl]-N-[(4-chlorophenyl)methyl]methanamine]	160	–
O=C(CO)N1CCc2c(c(-c3ccc(Cl)c(C#Cc4ccc(CNCc5ccc(Cl)cc5)cc4)c3)nn2CCCN2CCSCC2)C1 [Example 413, 2-[3-(4-Chloro-3-{[4-({[(4-chlorophenyl)methyl]amino}methyl)phenyl]ethynyl}phenyl)-1-(3-thiomorpholin-4-ylpropyl)-1,4,6,7-tetrahydro-5H-pyrazolo[4,3-c]pyridin-5-yl]-2-oxoethanol]	–	100
CS(=O)(=O)N1CCc2c(c(-c3ccc(Cl)c(C#Cc4ccc(CNCc5ccc(Cl)cc5)cc4)c3)nn2CCCN2CCN(c3ccncc3)CC2)C1 [Example 416, 1-{4-[(2-Chloro-5-{5-(methylsulfonyl)-1-[3-(4-pyridin-4-ylpiperazin-1-yl)propyl]-4,5,6,7-tetrahydro-1H-pyrazolo[4,3-c]pyridin-3-yl}phenyl)ethynyl]phenyl}-N-[(4-chlorophenyl)methyl]methanamine]	–	70
CS(=O)(=O)N1CCc2c(c(-c3ccc(Cl)c(C#Cc4ccc(CNCc5ccc(Cl)cc5)cc4)c3)nn2CCCN2CCN(c3cccnc3)CC2)C1 [Example 417, 1-{4-[(2-Chloro-5-{5-(methylsulfonyl)-1-[3-(4-pyridin-3-ylpiperazin-1-yl)propyl]-4,5,6,7-tetrahydro-1H-pyrazolo[4,3-c]pyridin-3-yl}phenyl)ethynyl]phenyl}-N-[(4-chlorophenyl)methyl]methanamine]	–	20
CS(=O)(=O)N1CCc2c(c(-c3ccc(Cl)c(C#Cc4ccc(CNCc5cccs5)cc4)c3)nn2CCCN2CCOCC2)C1 [Example 421, 1-[4-({2-Chloro-5-[5-(methylsulfonyl)-1-(3-morpholin-4-ylpropyl)-4,5,6,7-tetrahydro-1H-pyrazolo[4,3-c]pyridin-3-yl]phenyl}ethynyl)phenyl]-N-(2-thienylmethyl)methanamine]	–	190
CS(=O)(=O)N1CCc2c(c(-c3ccc(Cl)c(C#Cc4ccc(CNCc5ccsc5)cc4)c3)nn2CCCN2CCOCC2)C1 [Example 422, 1-[4-({2-Chloro-5-[5-(methylsulfonyl)-1-(3-morpholin-4-ylpropyl)-4,5,6,7-tetrahydro-1H-pyrazolo[4,3-c]pyridin-3-yl]phenyl}ethynyl)phenyl]-N-(3-thienylmethyl)methanamine]	–	170
